According to PMC7265341, “Quantifying CDK inhibitor selectivity in live cells” (Nature Communications, 2020):
Like-named read-outs stand apart in the source and are kept apart here.

Columns and labels:
CDK4/Cyclin D1 = CDK4/Cyclin D1 (Homo sapiens, UniProt P11802); assay: NanoBRET live-cell target engagement, NanoLuc-CDK4/Cyclin D1 in HEK-293; type: binding; conditions: 10µM, read-out: CDK4/D1 Inhibition at 10µM (%)
CDK11B/Cyclin L2 = CDK11B/Cyclin L2 (Homo sapiens, UniProt P21127); assay: NanoBRET live-cell target engagement, CDK11B-NanoLuc/Cyclin L2 in HEK-293; type: binding; conditions: 10µM, read-out: CDK11b/L2 Inhibition at 10µM (%)
CDK10/Cyclin L2 = CDK10/Cyclin L2 (Homo sapiens, UniProt Q15131); assay: NanoBRET live-cell target engagement, CDK10-NanoLuc/Cyclin L2 in HEK-293; conditions: read-out: CDK10/L2 Inhibition at 10µM (%), 10µM
CDK10/Cyclin L2, sequence (Q15131 whole entry): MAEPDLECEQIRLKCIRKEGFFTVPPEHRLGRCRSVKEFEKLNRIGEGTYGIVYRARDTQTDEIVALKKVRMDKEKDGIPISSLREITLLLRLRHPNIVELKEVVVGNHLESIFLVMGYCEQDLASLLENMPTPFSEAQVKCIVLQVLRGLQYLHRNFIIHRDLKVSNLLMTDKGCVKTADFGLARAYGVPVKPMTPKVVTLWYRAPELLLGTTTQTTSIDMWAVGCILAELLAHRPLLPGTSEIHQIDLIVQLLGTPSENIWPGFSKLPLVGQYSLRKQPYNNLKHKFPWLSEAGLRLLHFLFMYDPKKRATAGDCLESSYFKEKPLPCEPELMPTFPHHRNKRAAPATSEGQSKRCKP

CDK9/Cyclin K = CDK9/Cyclin K (Homo sapiens, UniProt P50750); assay: NanoBRET live-cell target engagement, NanoLuc-CDK9/Cyclin K in HEK-293; type: binding; conditions: 10µM, read-out: CDK9/K Inhibition at 10µM (%)
CDK9/Cyclin K, sequence (P50750 whole entry): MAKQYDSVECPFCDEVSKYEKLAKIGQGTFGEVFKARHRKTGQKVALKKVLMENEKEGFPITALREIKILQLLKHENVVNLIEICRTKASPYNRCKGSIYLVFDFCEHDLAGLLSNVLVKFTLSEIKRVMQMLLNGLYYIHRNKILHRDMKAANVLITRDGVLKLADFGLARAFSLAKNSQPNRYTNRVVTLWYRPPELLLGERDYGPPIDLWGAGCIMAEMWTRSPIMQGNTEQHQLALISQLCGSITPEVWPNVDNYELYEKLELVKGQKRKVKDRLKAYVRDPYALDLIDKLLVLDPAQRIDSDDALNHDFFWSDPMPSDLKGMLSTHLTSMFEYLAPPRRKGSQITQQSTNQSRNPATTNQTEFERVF
CDK9/Cyclin K, sequence (O75909 whole entry partner): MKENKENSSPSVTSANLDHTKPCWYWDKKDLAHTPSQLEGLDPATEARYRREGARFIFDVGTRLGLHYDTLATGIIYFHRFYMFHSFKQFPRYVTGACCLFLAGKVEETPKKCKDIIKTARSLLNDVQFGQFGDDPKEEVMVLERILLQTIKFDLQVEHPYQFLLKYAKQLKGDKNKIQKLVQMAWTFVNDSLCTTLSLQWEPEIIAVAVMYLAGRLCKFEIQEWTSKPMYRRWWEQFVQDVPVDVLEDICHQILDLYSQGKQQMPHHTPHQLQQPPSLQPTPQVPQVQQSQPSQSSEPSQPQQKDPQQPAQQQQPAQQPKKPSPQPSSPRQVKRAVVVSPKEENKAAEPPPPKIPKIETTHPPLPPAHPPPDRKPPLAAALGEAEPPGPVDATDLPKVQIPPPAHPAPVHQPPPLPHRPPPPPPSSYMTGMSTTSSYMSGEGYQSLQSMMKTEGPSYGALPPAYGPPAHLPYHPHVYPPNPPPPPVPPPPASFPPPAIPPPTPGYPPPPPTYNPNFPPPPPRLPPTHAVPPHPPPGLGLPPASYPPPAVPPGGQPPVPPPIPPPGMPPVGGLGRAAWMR

CDK6/Cyclin D1 = CDK6/Cyclin D1 (Homo sapiens, UniProt Q00534); assay: NanoBRET live-cell target engagement, NanoLuc-CDK6/Cyclin D1 in HEK-293; type: binding; conditions: 10µM, read-out: CDK6/D1 Inhibition at 10µM (%)
CDK13/Cyclin K = CDK13/Cyclin K (Homo sapiens, UniProt Q14004); assay: NanoBRET live-cell target engagement, CDK13-NanoLuc/Cyclin K in HEK-293; type: binding; conditions: 10µM, read-out: CDK13/K Inhibition at 10µM (%)
CDK7 = CDK7 (Homo sapiens, UniProt P50613); assay: NanoBRET live-cell target engagement, NanoLuc-CDK7 in HEK-293; type: binding; conditions: 10µM, read-out: CDK7 Inhibition at 10µM (%)
CDK7, sequence (P50613 whole entry): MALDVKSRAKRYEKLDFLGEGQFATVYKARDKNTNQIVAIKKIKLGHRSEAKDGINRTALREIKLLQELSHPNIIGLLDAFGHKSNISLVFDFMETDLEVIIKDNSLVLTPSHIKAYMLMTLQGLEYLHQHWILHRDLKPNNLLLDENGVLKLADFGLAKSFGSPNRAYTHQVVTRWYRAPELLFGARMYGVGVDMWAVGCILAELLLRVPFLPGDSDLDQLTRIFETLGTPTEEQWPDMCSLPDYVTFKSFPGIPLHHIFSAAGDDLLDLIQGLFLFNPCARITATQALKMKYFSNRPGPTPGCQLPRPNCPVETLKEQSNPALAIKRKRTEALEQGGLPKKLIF

CDK19/Cyclin C = CDK19/Cyclin C (Homo sapiens, UniProt Q9BWU1); assay: NanoBRET live-cell target engagement, NanoLuc-CDK19/Cyclin C in HEK-293; conditions: read-out: CDK19/C Inhibition at 10µM (%), 10µM
CDK19/Cyclin C, sequence (Q9BWU1 whole entry): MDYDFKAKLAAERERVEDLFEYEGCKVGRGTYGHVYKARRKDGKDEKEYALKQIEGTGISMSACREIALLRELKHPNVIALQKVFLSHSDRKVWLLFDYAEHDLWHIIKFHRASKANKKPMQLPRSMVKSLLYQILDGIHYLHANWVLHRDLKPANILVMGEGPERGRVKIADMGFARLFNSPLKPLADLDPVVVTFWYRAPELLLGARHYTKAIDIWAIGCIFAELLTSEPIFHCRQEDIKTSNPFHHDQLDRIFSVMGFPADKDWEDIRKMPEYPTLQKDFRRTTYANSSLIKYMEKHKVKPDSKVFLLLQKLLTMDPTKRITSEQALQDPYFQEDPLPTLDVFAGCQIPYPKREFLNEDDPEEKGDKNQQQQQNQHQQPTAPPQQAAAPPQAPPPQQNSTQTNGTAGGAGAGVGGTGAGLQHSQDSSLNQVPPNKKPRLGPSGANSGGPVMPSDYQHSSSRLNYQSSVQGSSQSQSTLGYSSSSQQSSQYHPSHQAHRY
CDK19/Cyclin C, sequence (P24863 whole entry partner): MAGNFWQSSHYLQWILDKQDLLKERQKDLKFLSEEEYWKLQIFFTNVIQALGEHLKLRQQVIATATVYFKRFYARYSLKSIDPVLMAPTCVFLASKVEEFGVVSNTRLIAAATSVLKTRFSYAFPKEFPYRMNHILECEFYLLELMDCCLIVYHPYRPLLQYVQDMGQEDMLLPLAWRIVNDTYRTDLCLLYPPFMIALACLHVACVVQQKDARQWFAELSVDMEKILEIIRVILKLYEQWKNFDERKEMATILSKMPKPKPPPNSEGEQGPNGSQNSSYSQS

CDK11A/Cyclin L2 = target: T1, CDK11A/Cyclin L2 (Homo sapiens, UniProt Q9UQ88); assay: NanoBRET live-cell target engagement, CDK11A-NanoLuc/Cyclin L2 in HEK-293; type: binding; conditions: 10µM, read-out: CDK11a/L2 Inhibition at 10µM (%)
T1 sequence (Q9UQ88 1-783): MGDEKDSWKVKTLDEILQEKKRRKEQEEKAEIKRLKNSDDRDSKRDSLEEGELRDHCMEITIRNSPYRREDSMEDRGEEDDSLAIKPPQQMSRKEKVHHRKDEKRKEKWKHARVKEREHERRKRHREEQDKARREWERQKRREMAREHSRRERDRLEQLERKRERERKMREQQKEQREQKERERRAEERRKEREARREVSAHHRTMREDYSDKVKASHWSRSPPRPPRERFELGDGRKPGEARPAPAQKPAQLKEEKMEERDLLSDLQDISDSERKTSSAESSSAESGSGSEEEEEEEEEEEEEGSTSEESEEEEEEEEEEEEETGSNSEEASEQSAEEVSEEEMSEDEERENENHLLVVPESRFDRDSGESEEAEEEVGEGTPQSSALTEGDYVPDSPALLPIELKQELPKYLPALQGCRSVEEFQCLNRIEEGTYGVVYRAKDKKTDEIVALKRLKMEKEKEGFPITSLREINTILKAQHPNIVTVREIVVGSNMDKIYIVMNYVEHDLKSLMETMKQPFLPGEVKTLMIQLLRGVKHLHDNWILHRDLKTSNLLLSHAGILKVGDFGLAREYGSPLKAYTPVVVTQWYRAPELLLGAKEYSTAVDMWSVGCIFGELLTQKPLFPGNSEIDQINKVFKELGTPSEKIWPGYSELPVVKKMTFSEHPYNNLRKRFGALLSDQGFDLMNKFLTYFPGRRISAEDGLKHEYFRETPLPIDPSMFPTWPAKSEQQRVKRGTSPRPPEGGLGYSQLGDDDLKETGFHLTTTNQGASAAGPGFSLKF

CDK16/Cyclin Y = CDK16/Cyclin Y (Homo sapiens, UniProt Q00536); assay: NanoBRET live-cell target engagement, CDK16-NanoLuc/Cyclin Y in HEK-293; type: binding; conditions: 10µM, read-out: CDK16/Y Inhibition at 10µM (%)
CDK8/Cyclin C = CDK8/Cyclin C (Homo sapiens, UniProt P49336); assay: NanoBRET live-cell target engagement, NanoLuc-CDK8/Cyclin C in HEK-293; type: binding; conditions: 10µM, read-out: CDK8/C Inhibition at 10µM (%)
CDK18/Cyclin Y = CDK18/Cyclin Y (Homo sapiens, UniProt Q07002); assay: NanoBRET live-cell target engagement, CDK18-NanoLuc/Cyclin Y in HEK-293; type: binding; conditions: 10µM, read-out: CDK18/Y Inhibition at 10µM (%)
CDK18/Cyclin Y, sequence (Q07002 whole entry): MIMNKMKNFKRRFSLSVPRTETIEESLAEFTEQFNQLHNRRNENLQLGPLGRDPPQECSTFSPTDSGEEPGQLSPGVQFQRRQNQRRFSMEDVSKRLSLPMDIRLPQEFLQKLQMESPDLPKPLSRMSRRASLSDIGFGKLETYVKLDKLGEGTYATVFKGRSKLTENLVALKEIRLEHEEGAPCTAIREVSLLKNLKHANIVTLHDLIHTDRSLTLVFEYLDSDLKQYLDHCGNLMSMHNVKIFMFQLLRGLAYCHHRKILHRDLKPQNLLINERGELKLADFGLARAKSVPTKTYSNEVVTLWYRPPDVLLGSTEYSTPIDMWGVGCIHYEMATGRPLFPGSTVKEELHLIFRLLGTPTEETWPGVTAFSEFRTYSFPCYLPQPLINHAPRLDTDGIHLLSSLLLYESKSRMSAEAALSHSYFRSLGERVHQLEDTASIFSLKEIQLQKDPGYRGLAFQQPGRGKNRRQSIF
CDK18/Cyclin Y, sequence (Q8ND76 whole entry partner): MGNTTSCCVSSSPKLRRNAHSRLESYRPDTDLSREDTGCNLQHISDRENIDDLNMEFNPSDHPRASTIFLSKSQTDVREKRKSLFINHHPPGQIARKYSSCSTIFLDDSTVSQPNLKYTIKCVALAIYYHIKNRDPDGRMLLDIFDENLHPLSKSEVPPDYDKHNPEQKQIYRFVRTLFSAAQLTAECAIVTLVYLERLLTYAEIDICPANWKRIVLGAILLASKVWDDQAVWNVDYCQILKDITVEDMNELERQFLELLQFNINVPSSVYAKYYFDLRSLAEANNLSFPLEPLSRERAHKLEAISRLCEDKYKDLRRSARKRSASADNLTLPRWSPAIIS

CDK2/Cyclin E1 = CDK2/Cyclin E1 (Homo sapiens, UniProt P24941); assay: NanoBRET live-cell target engagement, CDK2-NanoLuc/Cyclin E1 in HEK-293; type: binding; conditions: 10µM, read-out: CDK2/E1 Inhibition at 10µM (%)
CDK5/CDK5R1 = CDK5/CDK5R1 (Homo sapiens, UniProt Q00535); assay: NanoBRET live-cell target engagement, CDK5-NanoLuc/CDK5R1 in HEK-293; type: binding; conditions: 10µM, read-out: CDK5/CDK5R1 Inhibition at 10µM (%)
CDK5/CDK5R1, sequence (Q00535 whole entry): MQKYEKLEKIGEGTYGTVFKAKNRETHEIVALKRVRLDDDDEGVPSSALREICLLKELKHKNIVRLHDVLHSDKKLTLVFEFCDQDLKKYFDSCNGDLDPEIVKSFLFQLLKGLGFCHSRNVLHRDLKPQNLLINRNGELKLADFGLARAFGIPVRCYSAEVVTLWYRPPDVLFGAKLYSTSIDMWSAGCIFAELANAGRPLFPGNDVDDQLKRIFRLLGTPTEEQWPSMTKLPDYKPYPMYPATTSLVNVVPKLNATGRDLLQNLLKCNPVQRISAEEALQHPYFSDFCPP
CDK5/CDK5R1, sequence (Q15078 whole entry partner): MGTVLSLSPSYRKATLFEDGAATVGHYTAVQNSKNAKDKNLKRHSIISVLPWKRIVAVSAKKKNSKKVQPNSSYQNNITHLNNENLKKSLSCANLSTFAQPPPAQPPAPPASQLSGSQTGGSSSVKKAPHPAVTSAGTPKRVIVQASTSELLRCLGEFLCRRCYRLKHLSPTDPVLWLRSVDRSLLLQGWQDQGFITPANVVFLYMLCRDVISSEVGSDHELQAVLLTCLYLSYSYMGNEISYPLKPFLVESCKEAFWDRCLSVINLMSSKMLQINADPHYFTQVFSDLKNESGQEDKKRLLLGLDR

CDK14/Cyclin Y = CDK14/Cyclin Y (Homo sapiens, UniProt O94921); assay: NanoBRET live-cell target engagement, CDK14-NanoLuc/Cyclin Y in HEK-293; type: binding; conditions: 10µM, read-out: CDK14/Y Inhibition at 10µM (%)
CDK20/Cyclin H = CDK20/Cyclin H (Homo sapiens, UniProt Q8IZL9); assay: NanoBRET live-cell target engagement, NanoLuc-CDK20/Cyclin H in HEK-293; type: binding; conditions: 10µM, read-out: CDK20/H Inhibition at 10µM (%)
CDK1/Cyclin E1 = CDK1/Cyclin E1 (Homo sapiens, UniProt P06493); assay: NanoBRET live-cell target engagement, CDK1-NanoLuc/Cyclin E1 in HEK-293; type: binding; conditions: 10µM, read-out: CDK1/E1 Inhibition at 10µM (%)
CDK15/Cyclin Y = CDK15/Cyclin Y (Homo sapiens, UniProt Q96Q40); assay: NanoBRET live-cell target engagement, NanoLuc-CDK15/Cyclin Y in HEK-293; type: binding; conditions: 10µM, read-out: CDK15/Y Inhibition at 10µM (%)
CDK15/Cyclin Y, sequence (Q96Q40 whole entry): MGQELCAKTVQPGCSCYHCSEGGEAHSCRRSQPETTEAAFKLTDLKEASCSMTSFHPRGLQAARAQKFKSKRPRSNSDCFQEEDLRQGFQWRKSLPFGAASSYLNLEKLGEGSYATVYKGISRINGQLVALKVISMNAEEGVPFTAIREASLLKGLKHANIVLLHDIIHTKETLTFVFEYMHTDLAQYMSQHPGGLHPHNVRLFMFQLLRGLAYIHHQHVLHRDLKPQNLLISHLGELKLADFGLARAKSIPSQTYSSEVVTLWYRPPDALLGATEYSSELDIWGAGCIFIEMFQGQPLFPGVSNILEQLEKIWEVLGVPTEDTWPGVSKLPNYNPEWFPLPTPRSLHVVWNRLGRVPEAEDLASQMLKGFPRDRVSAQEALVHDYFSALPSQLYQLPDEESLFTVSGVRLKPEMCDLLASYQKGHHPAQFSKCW
CDK15/Cyclin Y, sequence (Q8ND76 whole entry partner): as the sequence (Q8ND76 whole entry partner) above

CDK17/Cyclin Y = CDK17/Cyclin Y (Homo sapiens, UniProt Q00537); assay: NanoBRET live-cell target engagement, CDK17-NanoLuc/Cyclin Y in HEK-293; type: binding; conditions: 10µM, read-out: CDK17/Y Inhibition at 10µM (%)
CDK17/Cyclin Y, sequence (Q00537 whole entry): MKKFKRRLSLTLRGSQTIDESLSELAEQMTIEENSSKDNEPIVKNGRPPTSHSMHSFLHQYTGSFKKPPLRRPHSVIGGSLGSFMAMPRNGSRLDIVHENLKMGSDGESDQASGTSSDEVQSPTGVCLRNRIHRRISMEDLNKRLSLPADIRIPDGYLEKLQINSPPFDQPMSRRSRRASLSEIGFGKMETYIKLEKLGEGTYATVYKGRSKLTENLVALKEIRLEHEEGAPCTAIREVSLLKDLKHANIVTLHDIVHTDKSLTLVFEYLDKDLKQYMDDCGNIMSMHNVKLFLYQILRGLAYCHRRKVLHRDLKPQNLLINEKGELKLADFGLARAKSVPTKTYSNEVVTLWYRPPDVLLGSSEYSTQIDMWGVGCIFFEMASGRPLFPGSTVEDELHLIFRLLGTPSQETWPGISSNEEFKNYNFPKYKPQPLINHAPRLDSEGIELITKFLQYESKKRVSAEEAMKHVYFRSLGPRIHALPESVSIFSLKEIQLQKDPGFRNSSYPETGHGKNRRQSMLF
CDK17/Cyclin Y, sequence (Q8ND76 whole entry partner): as the sequence (Q8ND76 whole entry partner) above

- inhibition at 10 µM (CDK4/Cyclin D1; average of experiments): -37.2%
- inhibition at 10 µM (CDK4/Cyclin D1; independent experiment 1): 8.3%
- inhibition at 10 µM (CDK4/Cyclin D1; independent experiment 2): -82.7%
- inhibition at 10 µM (CDK11B/Cyclin L2; average of experiments): 3.9%
- inhibition at 10 µM (CDK11B/Cyclin L2; independent experiment 1): 7.1%
- inhibition at 10 µM (CDK11B/Cyclin L2; independent experiment 2): 0.8%
- inhibition at 10 µM (CDK10/Cyclin L2; average of experiments): -1.9%
- inhibition at 10 µM (CDK10/Cyclin L2; independent experiment 1): -2.4%
- inhibition at 10 µM (CDK10/Cyclin L2; independent experiment 2): -1.5%
- inhibition at 10 µM (CDK9/Cyclin K; average of experiments): 8.4%
- inhibition at 10 µM (CDK9/Cyclin K; independent experiment 1): -0.3%
- inhibition at 10 µM (CDK9/Cyclin K; independent experiment 2): 17.1%
- inhibition at 10 µM (CDK6/Cyclin D1; average of experiments): -0.5%
- inhibition at 10 µM (CDK6/Cyclin D1; independent experiment 1): 5.9%
- inhibition at 10 µM (CDK6/Cyclin D1; independent experiment 2): -7%
- inhibition at 10 µM (CDK13/Cyclin K; average of experiments): 2.3%
- inhibition at 10 µM (CDK13/Cyclin K; independent experiment 1): 3%
- inhibition at 10 µM (CDK13/Cyclin K; independent experiment 2): 1.7%
- inhibition at 10 µM (CDK7; average of experiments): -0.0779%
- inhibition at 10 µM (CDK7; independent experiment 1): -0.361%
- inhibition at 10 µM (CDK7; independent experiment 2): 0.2%
- inhibition at 10 µM (CDK19/Cyclin C; average of experiments): 8%
- inhibition at 10 µM (CDK19/Cyclin C; independent experiment 1): 12.7%
- inhibition at 10 µM (CDK19/Cyclin C; independent experiment 2): 3.4%
- inhibition at 10 µM (CDK11A/Cyclin L2; average of experiments): -4.5%
- inhibition at 10 µM (CDK11A/Cyclin L2; independent experiment 1): -2.4%
- inhibition at 10 µM (CDK11A/Cyclin L2; independent experiment 2): -6.6%
- inhibition at 10 µM (CDK16/Cyclin Y; independent experiment 1): 11.3%
- inhibition at 10 µM (CDK16/Cyclin Y; independent experiment 2): -5.5%
- inhibition at 10 µM (CDK8/Cyclin C; average of experiments): 1.6%
- inhibition at 10 µM (CDK8/Cyclin C; independent experiment 1): 3.2%
- inhibition at 10 µM (CDK8/Cyclin C; independent experiment 2): -0.0599%
- inhibition at 10 µM (CDK18/Cyclin Y; average of experiments): 5.4%
- inhibition at 10 µM (CDK18/Cyclin Y; independent experiment 1): -4.7%
- inhibition at 10 µM (CDK18/Cyclin Y; independent experiment 2): 15.4%
- inhibition at 10 µM (CDK2/Cyclin E1; average of experiments): 66.9%
- inhibition at 10 µM (CDK2/Cyclin E1; independent experiment 1): 79.7%
- inhibition at 10 µM (CDK2/Cyclin E1; independent experiment 2): 54%
- inhibition at 10 µM (CDK5/CDK5R1; average of experiments): 63.7%
- inhibition at 10 µM (CDK5/CDK5R1; independent experiment 1): 36.3%
- inhibition at 10 µM (CDK5/CDK5R1; independent experiment 2): 91%
- inhibition at 10 µM (CDK14/Cyclin Y; average of experiments): -0.116%
- inhibition at 10 µM (CDK14/Cyclin Y; independent experiment 1): -3.3%
- inhibition at 10 µM (CDK14/Cyclin Y; independent experiment 2): 3.1%
- inhibition at 10 µM (CDK20/Cyclin H; independent experiment 1): -3.3%
- inhibition at 10 µM (CDK20/Cyclin H; independent experiment 2): -1.2%
- inhibition at 10 µM (CDK1/Cyclin E1; average of experiments): 21.2%
- inhibition at 10 µM (CDK1/Cyclin E1; independent experiment 1): 18.1%
- inhibition at 10 µM (CDK1/Cyclin E1; independent experiment 2): 24.3%
- inhibition at 10 µM (CDK15/Cyclin Y; average of experiments): 0.0365%
- inhibition at 10 µM (CDK15/Cyclin Y; independent experiment 1): 4.9%
- inhibition at 10 µM (CDK15/Cyclin Y; independent experiment 2): -4.9%
- inhibition at 10 µM (CDK17/Cyclin Y; average of experiments): 2.5%
- inhibition at 10 µM (CDK17/Cyclin Y; independent experiment 1): 0.32%
- inhibition at 10 µM (CDK17/Cyclin Y; independent experiment 2): 4.7%
SMILES: CC(C)[C@H](CO)Nc1nc(Nc2ccc(C(=O)O)c(Cl)c2)c2ncn(C(C)C)c2n1 [Purvalanol B]
